Reference: US5573926A, “Process for obtaining aroma components and aromas from their precursors of a glycosidic nature, and aroma components and aromas thereby obtained” (Gist-brocades, N.V., priority 1989, dated 1996)

Key:
β-glucosidase [1] = experiment: Second stage: consecutive action of β-glucosidase on the pre-incubated glycosidic extract (GC); format: biochemical, sweet almond; settings: 0.15 nkat, 40°, 16 h
Procedure: (§1) 40 μl of glycosidic extract and 60 μl of a solution of Glc-pNP (internal standard) at a concentration of 50 mg/1 in ethyl acetate are introduced into a suitable flask. The mixture is taken to dryness at 40° C. with a stream of nitrogen. 40 μl of the silylating reagent (Tri-sil, Pierce, Rockford, Ill., U.S.A.) are then introduced; the flask is sealed and maintained at 40° C. for 20 minutes. After rapid cooling, the silylated sample is then ready for analysis by GC.
(§2) The apparatus used consists of a Series 30C gas chromatograph, an "on-column" injector (injected volume 0.5 μl) and a flame ionization detector (Girdel, France). A thin film (0.20 μm) of an OV-1 (Girdel) apolar silicone phase is grafted onto the inner wall of the capillary column ([…].). The oven temperature is programmed from 125 to 305° C. at the rate of 5° C./minute, then maintained at 305° C. for 15 minutes. Finally, the detector temperature is set at 300° C. and hydrogen is used as the carrier gas at a pressure of 120 kPa.
(§3) The experimental protocols for the enzymatic hydrolysis on the glycosidic extract are collated in Table 3. […]

α-arabinosidase = experiment: Enzymatic hydrolysis of the muscat glycosidic extract by α-arabinosidase (GC); format: biochemical
Procedure: as §1, §2, §3

[2] = molecular target: T1, β-glucosidase of Klerzyme 200 (Aspergillus niger, UniProt A2RAL4); experiment: Hydrolysis of Hemicellulase-pretreated glycosidic extract by Klerzyme 200 (GC); format: biochemical; settings: glycosidic extract pretreated with Hemicellulase
T1 sequence (A2RAL4 20-860): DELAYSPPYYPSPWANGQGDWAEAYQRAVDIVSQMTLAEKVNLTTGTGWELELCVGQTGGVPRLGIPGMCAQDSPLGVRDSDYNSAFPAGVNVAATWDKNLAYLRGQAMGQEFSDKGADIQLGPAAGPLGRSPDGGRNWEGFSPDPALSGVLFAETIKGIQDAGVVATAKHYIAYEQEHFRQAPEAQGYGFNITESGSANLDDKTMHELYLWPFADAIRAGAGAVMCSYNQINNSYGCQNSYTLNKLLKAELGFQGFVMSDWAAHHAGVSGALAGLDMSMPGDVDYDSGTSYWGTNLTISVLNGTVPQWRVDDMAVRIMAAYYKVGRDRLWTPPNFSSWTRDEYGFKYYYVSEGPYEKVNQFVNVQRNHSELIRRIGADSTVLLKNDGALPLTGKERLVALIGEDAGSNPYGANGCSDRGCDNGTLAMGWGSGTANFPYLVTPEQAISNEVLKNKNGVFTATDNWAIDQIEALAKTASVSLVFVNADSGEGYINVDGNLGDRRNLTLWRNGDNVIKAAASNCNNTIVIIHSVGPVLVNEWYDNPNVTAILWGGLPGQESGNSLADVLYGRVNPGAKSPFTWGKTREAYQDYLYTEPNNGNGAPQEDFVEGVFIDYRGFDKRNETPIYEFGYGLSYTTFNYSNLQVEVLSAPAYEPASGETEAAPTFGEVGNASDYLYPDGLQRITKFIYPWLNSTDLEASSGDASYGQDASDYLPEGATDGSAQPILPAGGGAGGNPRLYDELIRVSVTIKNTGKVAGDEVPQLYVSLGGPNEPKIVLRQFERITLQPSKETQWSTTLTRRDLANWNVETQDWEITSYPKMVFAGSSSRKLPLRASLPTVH
Description: In another aspect, the action of the β-apiosidase on a glycosidic extract (FIG. 11A) was studied after the action of the Hemicellulase preparation (containing α-rhamnosidase, α-arabinosidase and β-glucosidase activities) on this extract. The Hemicellulase preparation eliminated the rhamnosyl- and arabinosylglucosides (FIG. 11B). Afterwards, the apiosylglucosides remaining were subjected to the hydrolytic action of the β-apiosidase and β-glucosidase of Klerzyme 200 (FIG. 11C). […] This is attributable to the weak affinity of the β-glucosidase of Klerzyme 200, vis-a-vis the linalyl glucosides.

α-rhamnosidase = experiment: Enzymatic hydrolysis of the muscat glycosidic extract by α-rhamnosidase (GC); format: biochemical; settings: 0.15 nkat, 40° C., 16 h
Procedure: as §1, §2, §3

β-glucosidase [3] = settings: cited from earlier work
[4] = Vinification of Muscat of Frontignan must with Klerzyme 200, free and bound aroma components by GC
Procedure: After storing for 1.5 months at 20°-22° C., the free and bound aroma component fractions of each sample were extracted on an Amberlite XAD-2 column in 50 ml aliquots, and analyzed via GC.
In another aspect, the action of an enzyme preparation (Klerzyme 200) containing β-apiosidase activity, in addition to α-rhamnosidase, α-arabinosidase and β-glucosidase activity, was studied during the fermentation of dry wines from the Muscat of Frontignan must. Klerzyme 200 (containing (per liter must) 2,770 nkat β-glucosidase, 704 nkat β-apiosidase, 276 nkat α-arabinosidase and 35 nkat α-rhamnosidase) and 10 g/hl of a wine yeast (Saccharomyces cerevisiae, type K1) were added to the must.

SMILES: C=CC(C)(CCC=C(C)C)O[C@@H]1O[C@H](CO)[C@@H](O)[C@H](O)[C@H]1O (stereo partly drawn) [Glc-Lin, linalyl β-D-glucopyranoside]
- hydrolysis by consecutive action of β-glucosidase (second stage, GC) (β-glucosidase [1]; listed as linalyl glucoside): incomplete hydrolysis
- hydrolysis by consecutive action of β-glucosidase (second stage, GC) (β-glucosidase [1]; listed as linanyl monoglucoside): reduction
- Terpene monoglucosides liberated by α-arabinosidase from a glycosidic extract (α-arabinosidase; 0.15 nkat, 40° C., 16 h): 10%
- % of monoglucosides (liberated by the two enzymes together) (α-arabinosidase; sum of α-arabinosidase and α-rhamnosidase): 19%
- hydrolysis by the β-glucosidase of Klerzyme 200 [2]: not hydrolyzed
- Terpene monoglucosides liberated by α-rhamnosidase from a glycosidic extract (α-rhamnosidase): 9%
- affinity of the sweet almond β-glucosidase for the substrate (β-glucosidase [3]): low affinity
- hydrolysis by Klerzyme 200 during vinification of dry wine [4]: not hydrolyzed
